Reference: US8273712B2, “Promoting wound healing by administering a prostaglandin E and granulocyte-macrophage colony stimulating factor” (Medical Research Council, priority 2005, dated 2012)

What was measured:
[1] = tested on: Male Sprague Dawley rats, 2 cm circular dorsal wounds; assay: Rat model of wound healing; format: in vivo; details: for Wound area relative to control (significance, in words): day 3 post surgery; for Wound colour observations relative to control: days 3-5; for Consistent brown wound colour scores: days 9 and 10, red indicates a less healed wound than brown
Description: Male Sprague Dawley rats weighing between 250-300 grams were used as a wound healing model to assess the effects of PGE and GMCSF. 6 rats per treatment group were analysed to provide adequate data for statistical comparisons between control and treated groups. A total of 24 animals were used (4 groups of 6 rats). The four groups were control, 16,16-dimethyl PGE, GMCSF, and 16,16-dimethyl PGE+GMCSF groups. […] Two wounds were created on each animal, resulting in an “n” of 12 wounds per group.
Following acclimatisation (5-6 days), the rats were given a subcutaneous injection of Glycopyrolate (0.01 mg/kg at 0.02 mg/mL), dose volume 0.5 mL/kg, and anesthetised with an intraperitoneal injection of a Ketamine (40 mg/kg)/Xylazine (5 mg/kg) cocktail at 45 mg/mL (ket) and 5 mg/mL (xy), dose volume 0.88 mL/kg. Adequate depth of anesthesia was assessed by a toe pinch prior to beginning surgery, such that if any movement was noted, the animals were given more anaesthesia. […] Once anesthesia was accomplished, a 6×8 cm area was shaved in the dorsal area. Following shaving, a depilatory agent (Nair) was applied to the shaved area, and allowed to remain on the skin for approximately 5 minutes. After this time, the Nair was gently scraped from the skin with a blunt spatula and any residue was removed by rinsing the skin with deionised, distilled water and wiping with gauze sponges. The shaved area was then surgically prepared with chlorhexidine and alcohol scrub.
The rat was then placed on its abdomen and positioned in such a way that the limbs were relaxed and the spine was straight. […] The inside margins of the T were traced with a Sharpie pen, such that as upside-down “L” appeared on the right side of the rat and an upside-down and backward “L” appeared on the left side of the animal. These designated the cranial border of each wound, approximately 3 cm caudal to the scapular angles, and the medial border of each wound, approximately 0.25 cm from the midline.
To make the wound template, the rim of a cap from a Corning 15 ml conical tube was placed on the area and traced using a sterile surgical marker creating a 2 cm circle within one of the upside-down L's described above. An initial incision was made with a #10 scalpel blade at the medial edge of each circle. The incision was made through the panniculus carnosus into the areolar layer of the subcutaneous loose connective tissue. The excision was continued around the entire perimeter of the circle using forceps and Metzenbaum curved scissors while taking care to avoid damaging the deep fescial layers. The skin was removed to leave a circular wound. Where necessary, hemostasis was achieved by even compression with a sterile gauze pad.
The test agent or vehicle control, was administered at three different sites under the wound bed. Group assignments and dose levels for each treatment were as detailed in Table 8. Dose levels were based on body weight.
The wounds were not covered with any type of dressing. Approximately 30 minutes after recovery (determined by sternal recumbency and normal movement) the animals were given a subcutaneous injection of Buprenorphine (0.1 mg/kg) and transferred to individual cages with elevated stainless steel floors. Additional Buprenorphine was given every 6-8 hours as needed, then for the following 72 hours, 0.05 mg/kg was administered every 6-12 hours as needed.
Animals were anesthetised with isoflurane on days 3, 7, and 10 following surgery and the wounds were measured by caliper for width and length. The width and length measurements were then multiplied to calculate wound area and the mean wound area and standard error of the mean for each treatment determined. To test for any significant difference in wound healing relative to control treatment, a two-way analysis of variance (ANOVA) test was performed on the mean wound areas. In addition to wound area, wound healing was evaluated daily by observing wound colour. […]

ML1 cells = assay: ELISA for measuring cytokine release; format: cell-based, human; details: monocyte
Description: Medium was removed from cells and analysed by ELISA. A monoclonal capture antibody was coated onto 96 well plates and culture medium was added each well. A standard curve was created with recombinant protein. After incubation and washing, a biotin-labelled monoclonal antibody was added. Following further incubation and washing, peroxidase-labelled streptavidin was added. After washing, a tetramethyl benzidine substrate was added and colour developed in proportion to the concentration of the cytokine in the original sample/standard. Colour was read using a plate photometer (Labsystems, Multiskan).
Paired antibodies and recombinant standards for CD14, CXCL8 (IL-8), and CCL2 (MCP-1) were obtained from R&D Systems Ltd, Abingdon UK and antibodies for IL-10 were obtained from Pharmingen (BD Bioscience, Erembodegem, Belgium), as shown below in Table 1.

[2] = molecular target: T1, 15-hydroxy prostaglandin dehydrogenase (Homo sapiens, UniProt P15428); details: cited from earlier work
T1 sequence (P15428 1-266): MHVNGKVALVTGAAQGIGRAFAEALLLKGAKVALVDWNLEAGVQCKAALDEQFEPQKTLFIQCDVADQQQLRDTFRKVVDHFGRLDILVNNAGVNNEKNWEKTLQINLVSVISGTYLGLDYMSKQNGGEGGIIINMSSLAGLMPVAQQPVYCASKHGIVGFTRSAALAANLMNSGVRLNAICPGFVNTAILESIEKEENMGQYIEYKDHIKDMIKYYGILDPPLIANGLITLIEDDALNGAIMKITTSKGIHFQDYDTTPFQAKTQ

PGE receptors = details: cited from earlier work
[3] = Day 3 post surgery, PGE analog 400 μg/kg and/or GMCSF 25 μg/kg per site under the wound bed
[4] = Day 7 post surgery, PGE analog 400 μg/kg and/or GMCSF 25 μg/kg per site
[5] = Day 10 post surgery, PGE analog 400 μg/kg and/or GMCSF 25 μg/kg per site

## GMCSF
[1]; Day 3
  Difference in wound area relative to control: −15.50
[1]; [3]
  Mean wound area: 424.2 mm^2
[1]; Day 7
  Difference in wound area relative to control: −18.63
[1]; [4]
  Mean wound area: 248.0 mm^2
[1]; Day 10
  Difference in wound area relative to control: 8.761
[1]; [5]
  Mean wound area: 153.0 mm^2
[1]
  Wound area relative to control (significance, in words): No significant difference
  Wound colour observations relative to control: more consistent brown scores relative to the control treatment
  Consistent brown wound colour scores: 3

## COc1ccc(C2CNC(=O)C2)cc1OC1CCCC1 (stereo not drawn) [rolipram]
ML1 cells
  IL-8 release induced by PGE and GMCSF: enhance IL-8 release

## 16,16-dimethyl PGE [PGE analog]
[2]
  Resistance to the main catabolic enzyme 15-hydroxy prostaglandin dehydrogenase: resistant
PGE receptors
  Activation of PGE receptors: activate all known PGE receptors
[1]; Day 3
  Difference in wound area relative to control: −52.21
[1]; [3]
  Mean wound area: 387.5 mm^2
[1]; Day 7
  Difference in wound area relative to control: −11.29
[1]; [4]
  Mean wound area: 255.4 mm^2
[1]; Day 10
  Difference in wound area relative to control: −9.185
[1]; [5]
  Mean wound area: 135.1 mm^2
[1]
  Wound area relative to control (significance, in words): No significant difference
  Wound colour observations relative to control: more consistent brown scores relative to the control treatment
  Consistent brown wound colour scores: 2
